From patent publication US7429291B2, “Print ink containing a plurality of fluorescent coloring materials and inkjet recording method” (Canon Kabushiki Kaisha, priority 2003, dated 2008)

What was measured:
[1] = Light absorption spectrum of coloring material; type: physicochemical
Experimental: Next, the present invention will be described more concretely with reference to the examples and the reference examples. Here, measured values obtained with pure-water diluents of coloring materials were used for an absorption wavelength region, a maximum absorption wavelength region, and a fluorescence wavelength region. Using an absorption spectrometer, absorption wavelengths were measured.
A diluent was prepared such that the absorbance thereof was in the range of 0.5 to 0.7. A higher region from a base line as an absorption peak of the coloring material was defined as an absorption wavelength region, and the peak value was defined as a maximum absorption wavelength region. In addition, for fluorescence wavelengths, the measurement conditions were defined such that the fluorescence intensities would not exceed the measurement threshold value. Then, the measurement of fluorescence wavelengths was performed by using the diluent used in the measurement of absorbance and by fixing the excitation wavelengths of the first and second coloring materials at predetermined wavelengths. A region higher than the base line was defined as a fluorescence emission wavelength region.
The absorption wavelength regions of the first and second coloring materials were measured using the spectrophotometer U-3200, manufactured by Hitachi Ltd., after the sample was diluted with pure water 100,000 fold. The absorption wavelength region of the first coloring material ranged from 450 to 620 nm both inclusive, and the maximum absorption wavelength thereof was 565 nm. In addition, the absorption wavelength region of the second coloring material ranged from 300 to 450 nm both inclusive, and the maximum absorption wavelength thereof was 372 nm.

[2] = Fluorescence emission and excitation spectra of coloring material in evaporated ink (FP-750); type: physicochemical; conditions: excitation at 254 nm
From the text: Hereinafter, the print ink of the present invention will be described with reference to the drawings. Unless noted as a recorded image or a printed matter, the results are with an evaporated ink in which water was removed by evaporation and coloring materials are dispersed in an organic solvent. The print ink according to each embodiment of the present invention contains a first fluorescent coloring material that emits fluorescence of a predetermined wavelength that is used for measurement or determination, with excitation at a predetermined excitation wavelength, a second fluorescent coloring material that emits fluorescence with excitation at the same excitation wavelength, and a liquid medium for solving or dispersing these materials therein.
Aspect 1 is characterized in that the fluorescence emission wavelength region of the second fluorescent coloring material covers at least the peak wavelength range of the excitation spectrum of the first fluorescent coloring material measured for emission at 600 nm (see FIG. 2) and/or the absorption wavelengths in the visible region of the first fluorescent coloring material (see the bottom of FIG. 6). […] Therefore, in FIG. 2, when the predetermined fluorescence wavelength of AR52 is 600 nm (the predetermined excitation wavelength: 254 nm), the peak wavelength range thereof is from 430 nm to 600 nm both inclusive. […]

[3] = absorption spectrum of the figures, normal ink

Row | absorption band in visible region [1, 3] | absorption peak wavelength in visible region [1, 3] | fluorescence emission peak wavelength [2] | maximum absorption wavelength ([1]; Example 1, diluted with pure water 100,000 fold, spectrophotometer U-3200) | SMILES
1 | ≤ 525 nm | 490 nm | 530 nm | – | O=C([O-])c1ccccc1-c1c2ccc(=O)cc-2oc2cc([O-])ccc12.[Na+].[Na+] [AY73, C.I. Acid Yellow 73]
2 | – | 565 nm | 600 nm | 565 nm | CCN(CC)c1ccc2c(-c3ccc(S(=O)(=O)[O-])cc3S(=O)(=O)[O-])c3ccc(=[N+](CC)CC)cc-3oc2c1.[Na+] [C.I. Acid Red 52]
